Measured values reported in US11219656B2 (Industry-Academic Cooperation Foundation, Yonsei University, priority 2011, dated 2022).

Experiments:
calvaria = experiment: Calvaria thickness measurement, gallocatechin and methyl vanillate treatment; format: cell-based; settings: calvaria of 4-day-old postnatal mice under differentiation, one week (FIG. 7)
Description: While inducing the differentiation in the calvaria of 4-day-old postnatal mice supplied by Orient Bio. 2 nM of gallocatechin and 0.2 nM of methyl vanillate were treated for one week.

SD-based rat = settings: single oral dose of 1 g/kg
Description: 6-week old specific pathogen-free (SPF) SD-based rat supplied from the DAEHAN Experiment Supply Center was used and the acute toxicity experiments were conducted as follows.
The animal mortality, clinical symptoms, and change in the body weight were observed and then hematologic testing and blood biochemical tests were conducted.

[1] = test system: ALP (alkaline phosphatase); experiment: ALP activity analysis; format: cell-based; settings: within the concentration gradient (FIG. 9 and FIG. 10)
[2] = test system: ALP (alkaline phosphatase) in primary osteoblast (POB) cells; experiment: ALP staining in differentiated primary osteoblast cells; format: cell-based; settings: 20 μM, differentiated and stained for 9 days (FIG. 8)
Description: In addition, in order to confirm the activity of ALP (alkaline phosphatase) showing the activation of bones, 20 μM of gallocatechin was treated with primary osteoblast (POB) cells, and allowed to differentiate and stain for 9 days.

| SMILES | thickness of the calvaria (calvaria; 2 nM gallocatechin) | specific clinical symptoms and died animals (SD-based rat) | toxic changes in body weight, blood tests, blood biochemical tests and autopsy findings (SD-based rat) | activity of ALP [1] | expression of ALP (staining) [2] | thickness of the calvaria (calvaria; 0.2 nM methyl vanillate) |
| --- | --- | --- | --- | --- | --- | --- |
| Oc1cc(O)c2c(c1)O[C@H](c1cc(O)c(O)c(O)c1)[C@@H](O)C2 [gallocatechin] | increased | not found | not observed | increased | increased | – |
| COC(=O)c1ccc(O)c(OC)c1 [methyl vanillate] | – | – | – | increased | – | increased |
